According to patent US6710063B1, “Activators of PPAR delta” (SmithKline Beecham Corporation, priority 1999, dated 2004):
Where a name gives a salt, the structure may show the parent alone.

Molecular target: T1, hPPARδ (Homo sapiens, UniProt Q03181)
T1 construct: polyHis; made in house; host or cells: E. coli
T1 sequence (Q03181 211-439 limits assumed): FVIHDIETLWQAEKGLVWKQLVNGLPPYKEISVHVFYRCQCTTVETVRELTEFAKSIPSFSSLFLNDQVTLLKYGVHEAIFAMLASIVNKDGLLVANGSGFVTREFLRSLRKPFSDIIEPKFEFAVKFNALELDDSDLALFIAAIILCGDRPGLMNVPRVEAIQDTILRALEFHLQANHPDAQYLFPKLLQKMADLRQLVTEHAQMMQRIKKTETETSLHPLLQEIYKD
Test: Scintillation Proximity Assay (SPA) binding to PPAR ligand binding domain
Conditions: radioligand GW 2433 for PPARδ, receptor subtype not named in the result sentence, read-out: Apparent pKi (converted)
Method: Compounds were tested for their ability to bind to hPPARγ hPPARα, or PPARδ using a Scintillation Proximity Assay (SPA). The PPAR ligand binding domain (LBD) was expressed in E. coli as polyHis tagged fusion proteins and purified. The LBD was then labeled with biotin and immobilized on streptavidin-modified scintillation proximity beads. The beads were then incubated with a constant amount of the appropriate radio ligand (^3H-BRL 49653 for PPARγ, 2-(4-(2-(2,3-Ditritio-1-heptyl-3-(2,4-difluorophenyl)ureido)ethyl)phenoxy)-2-methylbutanoic acid (described in WO/008002) for hPPARα and GW 2433 (see Brown, P. J et al. Chem. Biol. 1997, 4, 909-918. For the structure and synthesis of this ligand) for PPARδ) and variable concentrations of test compound, and after equilibration the radioactivity bound to the beads was measured by a scintillation counter. The amount of nonspecific binding, as assessed by control wells containing 50 μM of the corresponding unlabelled ligand, was subtracted from each data point. For each compound tested, plots of ligand concentration vs. CPM of radio ligand bound were constructed and apparent Ki values were estimated from nonlinear least squares fit of the data assuming simple competitive binding. […]

Row | Compound | Ki
1 | COC(=O)COc1ccc(SCc2sc(-c3ccc(C(F)(F)F)cc3)nc2C)cc1 [Example 61, Methyl 2-{4-[({4-Methyl-2-[4-(trifluoromethyl)phenyl]-1,3-thiazol-5-yl}methyl)sulfanyl]phenoxy}acetate] | > 316 nM

Tested on: not listed separately
Test: Stability at ambient temperature (observation on isolated compound)
Format: physicochemical
Conditions: not given
Method: Example 37 was hydrolyzed as described in general procedure 3 to afford the title compound (45%) as a yellow solid: mp 124-126° C.; 1H-NMR (acetone-d6) δ 2.47 (s, 3H), 3.09 (s, 3H), 408(s, 2H), 5.25 (s, 2H), 6.70 (d, 2H), 6.91 (d, 2H), 7.83 (d, 2H), 8.16 (d, 2H); MS m/z 437(M+1)−.

Row | Compound | stability at ambient temperature
2 | Cc1nc(-c2ccc(C(F)(F)F)cc2)sc1COc1ccc(N(C)CC(=O)O)cc1 [Example 38, N-Methyl-N-[4-(2-[4-Trifluromethylphenyl]-4-methyl-thiazole-5-ylmethoxy)phenyl]-acetic Acid] | unstable and gradually decomposed at ambient temperature

Tested on: obese rhesus monkeys
Test: 6-month dose escalation study in obese rhesus monkeys
Format: in vivo, rhesus monkey
Conditions: 3 mg/kg dose bid, in each monkey
Method: The compound of Example 66 was examined in a Rhesus model. […] HDLc increased by more than 40% in each monkey at the 3 mg/kg dose. […] Serum TG concentrations decreased by more than 30% in each monkey. Fasting insulin decreased by more than 20% in each monkey. Serum fibrinogen concentrations decreased by 10 20%, with peak activity observed at doses of 0.3 and 1 mg/kg.

Row | Compound | HDLc increase
3 | Cc1cc(SCc2sc(-c3ccc(C(F)(F)F)cc3)nc2C)ccc1OCC(=O)O [Example 66, 2-{2-Methyl-4-[({4-methyl-2-[4-(trifluoromethyl)phenyl]-1,3-thiazol-5-yl}methyl)sulfanyl]phenoxy}acetic Acid] | more than 40%

Same assay, conditions: 0.1, 0.3, 1, and 3 mg/kg bid for 28 days each

Row | Compound | HDLc change with each dose
4 | Cc1cc(SCc2sc(-c3ccc(C(F)(F)F)cc3)nc2C)ccc1OCC(=O)O [Example 66, 2-{2-Methyl-4-[({4-methyl-2-[4-(trifluoromethyl)phenyl]-1,3-thiazol-5-yl}methyl)sulfanyl]phenoxy}acetic Acid] | raised HDLc with each dose

Same assay, conditions: dose escalation 0.1-3 mg/kg bid

Row | Compound | LDLc particle composition (NMR analysis of lipoprotein particles)
5 | Cc1cc(SCc2sc(-c3ccc(C(F)(F)F)cc3)nc2C)ccc1OCC(=O)O [Example 66, 2-{2-Methyl-4-[({4-methyl-2-[4-(trifluoromethyl)phenyl]-1,3-thiazol-5-yl}methyl)sulfanyl]phenoxy}acetic Acid] | shift in the LDLc composition to fewer and larger LDLc particles

Same assay, conditions: in each monkey

Row | Compound | Fasting insulin decrease | Serum TG concentration decrease
6 | Cc1cc(SCc2sc(-c3ccc(C(F)(F)F)cc3)nc2C)ccc1OCC(=O)O [Example 66, 2-{2-Methyl-4-[({4-methyl-2-[4-(trifluoromethyl)phenyl]-1,3-thiazol-5-yl}methyl)sulfanyl]phenoxy}acetic Acid] | more than 20% | more than 30%

Tested on: not given
Test: not given
Conditions: not given

Row | Compound | melting point
7 | Cc1cc(OCc2sc(-c3ccc(C(F)(F)F)cc3)nc2C)ccc1OCC(=O)O [Example 54, 2-[2-Methyl-4-({4-methyl-2-[4-(trifluoromethyl)phenyl]-1,3-thiazol-5-yl}methoxy)phenoxy]acetic Acid] | 174 to 176 °C
8 | Cc1nc(-c2ccc(C(F)(F)F)cc2)oc1COc1ccc(/C=C/C(=O)O)cc1 [Example 22, (E)-3-[4-({4-Methyl-2-[4-(trifluoromethyl)phenyl]-1,3-oxazol-5-yl}methoxy)phenyl]-2-propenoic Acid] | 193 °C
9 | COc1cc(CCC(=O)O)ccc1OCc1sc(-c2ccc(C(F)(F)F)cc2)nc1C [Example 6, 3-[3-Methoxy-4-({4-methyl-2-[4-(trifluoromethyl)phenyl]-1,3-thiazol-5-yl}methoxy)phenyl]propanoic Acid] | 150 to 152 °C
10 | Cc1cc(SCc2sc(-c3ccc(Br)cc3)nc2C)ccc1OCC(=O)O [Example 69, 2-{2-Methyl-4-[({4-methyl-2-[4-bromophenyl]-1,3-thiazol-5-yl}methyl)sulfanyl]phenoxy}acetic Acid] | > 250 °C
11 | Cc1cc(SCc2sc(-c3ccc(Cl)c(Cl)c3)nc2C)ccc1OCC(=O)O [Example 75, 2-{2-Methyl-4-[({4-methyl-2-[3,4-dichlorophenyl]-1,3-thiazol-5-yl}methyl)sulfanyl]phenoxy}acetic Acid] | 143 °C
12 | Cc1cc(SCc2sc(-c3ccc(F)cc3)nc2C)ccc1OCC(=O)O [Example 73, 2-{2-Methyl-4-[({4-methyl-2-[4-fluorophenyl]-1,3-thiazol-5-yl}methyl)sulfanyl]phenoxy}acetic Acid] | 45 to 46 °C
13 | Cc1nc(-c2ccc(C(F)(F)F)cc2)sc1CCOc1ccc(CC(=O)O)cc1 [Example 32] | 128 to 130 °C
14 | Cc1nc(-c2cccc(C(F)(F)F)c2)oc1COc1ccc(CCC(=O)O)cc1 [Example 16, 3-[4-({4-Methyl-2-[3-(trifluoromethyl)phenyl]-1,3-oxazol-5-yl}methoxy)phenyl]propanoic Acid] | 134 to 135 °C
15 | Cc1nc(-c2ccc(C(F)(F)F)cc2)oc1COc1ccc(SCC(=O)O)cc1 [Example 44, 2-{[4-({4-Methyl-2-[4-(trifluoromethyl)phenyl]-1,3-oxazol-5-yl}methoxy)phenyl]sulfanyl}acetic Acid] | 138 to 140 °C
16 | Cc1cc(SCc2sc(-c3ccc(F)c(F)c3)nc2C)ccc1OCC(=O)O [Example 77, 2-{2-Methyl-4-[({4-methyl-2-[3,4-difluorophenyl]-1,3-thiazol-5-yl}methyl)sulfanyl]phenoxy}acetic Acid] | 119 °C
17 | Cc1nc(-c2ccc(C(F)(F)F)cc2)sc1COc1ccc(CC(=O)O)cc1Cl [Example 36, 2-[3-Chloro-4-({4-methyl-2-[4-(trifluoromethyl)phenyl]-1,3-thiazol-5-yl}methoxy)phenyl]acetic Acid] | 126 to 127 °C
18 | Cc1cc(SCc2sc(-c3ccc(Cl)cc3)nc2C)ccc1OCC(=O)O [Example 71, 2-{2-Methyl-4-[({4-methyl-2-[4chlorophenyl]-1,3-thiazol-5-yl}methyl)sulfanyl]phenoxy}acetic Acid] | 109 °C
19 | Cc1cc(SCc2sc(-c3cc(C(F)(F)F)cc(C(F)(F)F)c3)nc2C)ccc1OCC(=O)O [Example 79, 2-{2-Methyl-4-[({4-methyl-2-[3,5-bis(trifluoromethyl)phenyl]-1,3-thiazol-5-yl}methyl)sulfanyl]phenoxy}acetic Acid] | 178 °C
20 | Cc1nc(-c2ccc(C(F)(F)F)cc2)sc1CCOc1ccc(CCC(=O)O)cc1 [Example 14] | 128 to 130 °C
21 | Cc1nc(-c2ccc(C(F)(F)F)cc2)sc1CSc1ccc(CC(=O)O)cc1 (as salt: salt) [Example 48, 2-{4-[({4-Methyl-2-[4-(trifluoromethyl)phenyl]-1,3-thiazol-5-yl}methyl)sulfanyl]phenyl}acetic Acid] | 202 to 203 °C
22 | Cc1nc(-c2ccc(C(F)(F)F)cc2)sc1CSc1ccc(OCC(=O)O)cc1 [Example 62, 2-{4-[({4-Methyl-2-[4-(trifluoromethyl)phenyl]-1,3-thiazol-5-yl}methyl)sulfanyl]phenoxy}acetic Acid] | 190 °C
23 | COc1cc(CCC(=O)O)ccc1OCc1oc(-c2ccc(C(F)(F)F)cc2)nc1C [Example 24] | 162 to 163 °C
24 | Cc1sc(-c2ccc(C(F)(F)F)cc2)nc1CCOc1ccc(CCC(=O)O)cc1 [Example 10, 3-[4-(2-{5-Methyl-2-[4-(trifluoromethyl)phenyl]-1,3-thiazol-4-yl}ethoxy)phenyl]propanoic Acid] | 142 to 147 °C
25 | COc1cc(CC(=O)O)ccc1SCc1sc(-c2ccc(C(F)(F)F)cc2)nc1C (as salt: salt) [Example 52, 2-{3-Methoxy-4-[({4-methyl-2-[4-(trifluoromethyl)phenyl]-1,3-thiazol-5-yl}methyl)sulfanyl]phenyl}acetic Acid] | 181 to 182 °C
26 | Cc1nc(-c2ccc(C(F)(F)F)cc2)oc1COc1ccc(CC(=O)O)cc1Cl (as salt: salt) [Example 50, 2-[3-Chloro-4-({4-methyl-2-[4-(trifluoromethyl)phenyl]-1,3-oxazol-5-yl}methoxy)phenyl]acetic Acid] | 189 to 191 °C
27 | Cc1nc(-c2ccc(C(F)(F)F)cc2)sc1COc1ccc(N(C)CC(=O)O)cc1 [Example 38, N-Methyl-N-[4-(2-[4-Trifluromethylphenyl]-4-methyl-thiazole-5-ylmethoxy)phenyl]-acetic Acid] | 124 to 126 °C
